One test relates to CH1. In words: Ovarian carcinoma cytotoxicity assay. The test is classed as cell-based. As to the method: (§1) Compounds of the invention (and Anthramycin as a comparison) were evaluated for their cytotoxic activity in ovarian cell lines by Dr Lloyd R. Kelland's group at The Institute of Cancer Research, Sutton, UK. The five cell lines investigated were SKOV-3, A2780/A2780cisR and CH1/CH1cisR (cis R denotes that the cell line is resistant to cisplatin).
(§2) Single viable cells were seeded in growth medium (160 μL) in […] microtitre plates and allowed to attach overnight. […] After 96 hours, the medium was removed and the remaining cells fixed by exposure to 10% trichloroacetic acid on ice for 30 minutes. The wells were then washed 3-4 times with tap water, air dried overnight and treated with 100 μL of sulphorhodamine B (0.4%) dissolved in 1% acetic acid. Staining was allowed to continue for 10-15 minutes, then the wells were washed 3-4 times with 1% acetic acid, air dried and then added to Tris base (100 μL of 10 mM). Plates were then shaken and absorbance readings at 540 nm were determined using a plate reader. By using the Quattro-Pro software package, the IC50 values were calculated from plots of concentration versus percentage absorbance (compared with 8 untreated wells).

A further test relates to SKOV-3. In words: Ovarian carcinoma cytotoxicity assay. Type of test: cell-based. On the procedure:
as §1, §2

In a further test the test system is CH1cisR. Description: Ovarian carcinoma cytotoxicity assay. The test is classed as cell-based. As to the method: as §1, §2
The subject of the next test is A2780cisR. In words: Ovarian carcinoma cytotoxicity assay. The test is classed as cell-based, human. As to the method: as §1, §2
A further test deals with A2780. In words: Ovarian carcinoma cytotoxicity assay. The test is classed as cell-based, human. On the procedure:
as §1, §2

In another test the test system is calf thymus DNA. Description: DNA helix melting temperature assay. The test is classed as binding. The settings on record: [PBD]:[DNA] ratio of 1:5, calf thymus DNA. As to the method:
The first assay, which is described in G. B. Jones, et al., Anti-Cancer Drug Des., 1990, 5, 249, which is incorporated herein by reference, determines the effect of the test compound on the helix melting temperature of DNA. This assay is designed to give an indication of the strength and extent of cross-linking of the DNA strands by the test compound (i.e. a measure of the stabilisation of the DNA upon ligand binding).
The melting temperature was determined for a 1:5 molar ratio of [ligand] [DNA], where the calf thymus DNA concentration is […] in aqueous sodium phosphate buffer (10 mM sodium phosphate+1 mM EDTA, pH 7.00±0.01). For calf thymus DNA at pH 7.00±0.01, the melting temperature is 67.83±0.06° C. (mean value from 30 separate determinations).

The mark [1] stands for this setting: Homo sapiens, CH1, 96 h, read-out: IC50 CH1, 96 hours, sulphorhodamine B.
The mark [2] stands for this setting: Homo sapiens, SK-OV-3, 96 h, read-out: IC50 Skov3, 96 hours, sulphorhodamine B.
Setting [3] is: Homo sapiens, CH1cisR, 96 h, read-out: IC50 CH1cisR, cisplatin-resistant, 96 hours, sulphorhodamine B.
Where [4] appears, read: Homo sapiens, A2780cisR, 96 h, read-out: IC50 A2780cisR, cisplatin-resistant, 96 hours, sulphorhodamine B.
The mark [5] stands for this setting: Homo sapiens, A2780, 96 h, read-out: IC50 A2780, 96 hours, sulphorhodamine B.

Usually IC50 stands for the point on the concentration scale where inhibition reaches its midpoint.

The structures appear in SMILES notation. Like-named read-outs stand apart in the source and are kept apart here.

`Cc1ccc2c(c1O)NC(O)C1CC(/C=C/C(N)=O)=CN1C2=O` (stereo not drawn) [Anthramycin, anthramycin, reference compound]: the half-inhibitory concentration (IC50) with CH1 (setting [1]) is 0.062 µM; in the test on SKOV-3 (setting [2]) it was 0.16 µM; with CH1cisR (setting [3]), 0.05 µM; in the test on A2780cisR (setting [4]), 0.16 µM; in the test on A2780 (setting [5]) it was 0.155 µM.

For the molecule `C/C=C1\C[C@H]2C=Nc3cc(O)c(OC)cc3C(=O)N2C1` [Tomamycin, tomaymycin], the “Induced ΔTa after incubation at 37° C. for 0 h” value in the test on calf thymus DNA (pH 7.00, 0 h) was found to be 0.97 °C. Further, the “Induced ΔTa after incubation at 37° C. for 4 h” value in the test on calf thymus DNA (pH 7.00, 4 h) worked out at 2.38 °C. The “Induced ΔTa after incubation at 37° C. for 18 h” value in the test on calf thymus DNA (pH 7.00, 18 h) was 2.56 °C.

As for `COc1cc2c(cc1OCCC(=O)N1CCCCC1)N=C[C@@H]1CCCN1C2=O` [UP2006 (163)], the IC50 in the test on CH1 (setting [1]) was determined as 4.9 µM; with SKOV-3 (setting [2]) it was 23.5 µM; in the test with CH1cisR (setting [3]), 7.9 µM; in the test with A2780cisR (setting [4]) it was 14.5 µM; in the test with A2780 (setting [5]), 3.2 µM.

On to `COc1cc2c(cc1OCCC(=O)N1CCc3ccccc31)N=C[C@@H]1CCCN1C2=O` [UP2007 (165), 1, (2,3-dihydro-1H-indolyl)-3-(7-methoxy-5-oxy(11as)-2,3,5,11a-tetrahydro-1H-benzo[e]pyrrolo[1,2-a][1,4]diazepin-8-yloxy)-1-propanone], for which the IC50 with CH1 (read-out: IC50 CH1, 96 hours, sulphorhodamine B) was found to be 1.5 µM; in the test with SKOV-3 (read-out: IC50 Skov3, 96 hours, sulphorhodamine B), 5.8 µM; in the test on CH1cisR (read-out: IC50 CH1cisR, cisplatin-resistant, 96 hours, sulphorhodamine B), 3 µM; with A2780cisR (read-out: IC50 A2780cisR, cisplatin-resistant, 96 hours, sulphorhodamine B) it was 4.9 µM; in the test with A2780 (read-out: IC50 A2780, 96 hours, sulphorhodamine B), 1.55 µM.

Regarding `COc1cc2c(c(OC)c1OCCCOc1c(OC)cc3c(c1OC)N=C[C@@H]1CCCN1C3=O)N=C[C@@H]1CCCN1C2=O` [UP2020 (90)], the half-inhibitory concentration (IC50) with CH1 (setting [1]) worked out at 1.7 µM; in the test on SKOV-3 (setting [2]), 1.6 µM; with CH1cisR (setting [3]), 2.8 µM; with A2780cisR (setting [4]) it was 7.2 µM; in the test with A2780 (setting [5]) it was 10 µM.

For `COc1cc2c(c(OC)c1O)N=CC1CC(=O)CN1C2` (stereo not drawn) [UP2021 (130), 7,9-dimethoxy-8-Hydroxy-1,2,3,11a-tetrahydropyrrolo[2,1-c][1,4]benzodiazepin-2-one], the IC50 in the test with CH1 (setting [1]) was 51 µM; in the test on SKOV-3 (setting [2]), over 100 µM; in the test on CH1cisR (setting [3]), 47 µM; with A2780cisR (setting [4]), over 100 µM; with A2780 (setting [5]) it was over 100 µM.

Regarding `COc1cc2c(c(OC)c1OCc1ccccc1)N=C[C@@H]1CCCN1C2=O` [UP2022 (143), 8-Benzyloxy-7,9-dimethoxy-1,2,3,11a-tetrahydropyrrolo[2,1-c][1,4]benzodiazepin-5-one], the IC50 came out at 14 µM with CH1 (setting [1]), 33 µM in the test on SKOV-3 (setting [2]), 11 µM in the test with CH1cisR (setting [3]) and 16.5 µM with A2780cisR (setting [4]).

For `COc1cccc2c1N=C[C@@H]1CCCN1C2=O` [UP2024 (101), (11aS)-9-methoxy-1,2,3,11a-tetrahydro-5H-pyrrolo[2,1-c][1,4]benzodiazepin-5-one], the IC50 turned out to be 1.45 µM in the test with CH1 (setting [1]); 2.35 µM in the test on SKOV-3 (setting [2]); 1.25 µM with CH1cisR (setting [3]); 1.8 µM with A2780cisR (setting [4]); 1.4 µM in the test on A2780 (setting [5]).

For the molecule `COc1cc2c(cc1OC)C(=O)N1CCC[C@H]1C=N2` [UP2025 (106), (11aS)-7,8-dimethoxy-1,2,3,11a-tetrahydro-5H-pyrrolo [2,1-c][1,4]benzodiazepin-5-one], the 50% inhibitory concentration (IC50) was found to be 0.082 µM in the test on CH1 (setting [1]), 1.7 µM in the test on SKOV-3 (setting [2]), 0.11 µM in the test with CH1cisR (setting [3]) and 0.064 µM in the test with A2780 (setting [5]).

Take `COC(=O)CC1=CN2C(=O)c3cc(OC)c(OCCCOc4cc5c(cc4OC)C(=O)N4C=C(CC(=O)OC)C[C@H]4C=N5)cc3N=C[C@@H]2C1` [UP2053 (56)]: the IC50 in the test on CH1 (setting [1]) came to 0.0115 µM; in the test on SKOV-3 (setting [2]), 0.1 µM; in the test on CH1cisR (setting [3]) it was 0.011 µM; in the test on A2780cisR (setting [4]), 0.058 µM; in the test with A2780 (setting [5]), 0.0054 µM.

Take `COc1cc2c(cc1OCc1ccccc1)N=C[C@@H]1CC(CC#N)=CN1C2=O` [UP2074 (10)]: the IC50 in the test with CH1 (setting [1]) was determined as 0.105 µM; with SKOV-3 (setting [2]), 0.52 µM; in the test on CH1cisR (setting [3]) it was 0.27 µM; in the test on A2780cisR (setting [4]) it was 0.43 µM; in the test on A2780 (setting [5]), 0.155 µM.

With `COc1cc2c(c(OC)c1OC)N=C[C@@H]1CCCN1C2=O` [UP2086 (120), 7,8,9-Trimethoxy-1,2,3,11a-tetrahydro-5H-pyrrolo[2,1-c][1,4]benzodiazepin-5-one], the IC50 in the test on CH1 (setting [1]) turned out to be 1.6 µM; in the test on SKOV-3 (setting [2]), 2.5 µM; with CH1cisR (setting [3]), 2.2 µM; in the test on A2780cisR (setting [4]), 0.45 µM; in the test with A2780 (setting [5]), 0.84 µM.

For the molecule `COc1cc2c(cc1OCCCNC(=O)OCC1c3ccccc3-c3ccccc31)N=C[C@@H]1CCCN1C2=O` [UP2088 (205), (11aS) 8-(N-9-fluorenylmethoxycarbonyl)aminopropyloxy-7-methoxy-1,2,3,11a-tetrahydro-5H-pyrrolo[2,1-c][1,4]benzodiazepin-5-one], the IC50 in the test with CH1 (96 hours, sulphorhodamine B, read-out: IC50 CH1) worked out at 12 µM; in the test on SKOV-3 (96 hours, sulphorhodamine B, read-out: IC50 Skov3), 14 µM; in the test with CH1cisR (cisplatin-resistant, 96 hours, sulphorhodamine B, read-out: IC50 CH1cisR), 16 µM; with A2780cisR (cisplatin-resistant, 96 hours, sulphorhodamine B, read-out: IC50 A2780cisR) it was 8.5 µM; in the test on A2780 (96 hours, sulphorhodamine B, read-out: IC50 A2780), 11 µM.

Take `C=CC1=CN2C(=O)c3cc(OC)c(OC)cc3N=C[C@@H]2C1` [UP2089 (177), (11aS)-1,11a-dihydro-7,8-dimethoxy-2-ethenyl-5H-pyrrolo[2,1-c][1,4]benzodiazepin-5-one]: the half-maximal inhibitory concentration (IC50) is under 0.0025 µM with CH1 (setting [1]); 0.0054 µM in the test on SKOV-3 (setting [2]); 0.0023 µM with CH1cisR (setting [3]); 0.0042 µM in the test on A2780cisR (setting [4]); 0.0022 µM in the test on A2780 (setting [5]).

As to `COc1ccc(C2=CN3C(=O)c4cc(OC)c(OC)cc4N=C[C@@H]3C2)cc1` [UP2092 (179), (11aS)-1,11a-dihydro-7,8-dimethoxy-2-(4-methoxyphenyl)-5H-pyrrolo[2,1-c][1,4]benzodiazepin-5-one], the IC50 worked out at 0.0016 µM in the test on CH1 (setting [1]); 0.0098 µM in the test with SKOV-3 (setting [2]); 0.0082 µM in the test with CH1cisR (setting [3]); 0.007 µM in the test on A2780cisR (setting [4]); 0.004 µM with A2780 (setting [5]).

Take `COc1cc2c(cc1OC)C(=O)N1C=C(c3ccccc3)C[C@H]1C=N2` [UP2095 (181), (11aS)-1,11a-dihydro-7,8-dimethoxy-2-phenyl-5H-pyrrolo[2,1-c][1,4]benzodiazepin-5-one]: the IC50 with CH1 (setting [1]), with SKOV-3 (setting [2]), with CH1cisR (setting [3]), in the test on A2780cisR (setting [4]) and in the test on A2780 (setting [5]) was under 0.05 µM throughout.

For the molecule `C/C=C1\C[C@H]2C=Nc3cc(OCc4ccccc4)c(OC)cc3C(=O)N2C1` [UP2100 (207)], the IC50 with CH1 (setting [1]) is under 0.05 µM; with SKOV-3 (setting [2]), 0.081 µM; with CH1cisR (setting [3]), under 0.05 µM; in the test with A2780cisR (setting [4]) it was 0.066 µM; in the test with A2780 (setting [5]) it was under 0.05 µM.

For the origin of these results see patent US7049311B1, “Pyrrolbenzodiazepines” (Spirogen Limited, priority 1998, dated 2006).
